For this assay, the system named is grass silage. Kind of assay: Aerobic stability of grass silage (PVC silos, method of Honig). The arrangement: species or system ryegrass. How it is done: Second cut ryegrass was harvested at PLNC. The grass was determined to have an approximate dry matter of 35%.
Inoculation: Individual strains were supplied as fresh grown overnight culture. Cultures were adjusted to a standard concentration of 5.0×10^7 CFU/mL and applied using a syringe at a rate of 2.2 mL/kg of forage. The application rate for all strains was 1.1×10^5 CFU/g forage. Propionic acid (88%) was applied at a rate of 4.4 mL/kg fresh forage.
PVC Silos: PVC silos were filled at a packing density of 0.288 kg DM/silo (100 kg DM/m^3); approximately 0.82-0.95 kg/silo. Silos were air infused for 24 hours on days 28 and 42, and opened after 50-60 days of ensiling.
Aerobic Stability: The method of Honig (Proc. Of the Eurobac. Conf., P. Lingvall and S. Lindgren (ed.) (12-16 Aug. 1986) Swed. Univ. of Agric. Sci. Grass and Forage Report No. 3-1990. Pp. 76-81. Uppsala, Sweden.) was used for measuring aerobic stability (see Table 2). ROT is defined as the time, in hours, for the silage to heat 1.7° C. after exposure to air. Cumm_DD is the integral value of the area between the time ROT is attained and the end of the experiment. Aerobic dry matter loss (% dry matter) was determined relating the increase in temperature and the time to energy losses occurring in the silage.

As to `CCC(=O)O` [Propionic Acid, Propionic acid], the “Aerobic deterioration versus control grass silages” value is recorded as “significantly less aerobic deterioration than the control”.

Values taken from patent publication US20090028991A1, “Lactobacillus buchneri strain LN1284 and its use to improve aerobic stability of silage” (Pioneer Hi-Bred International, Inc., priority 2006, published 2009).
